Tests used:
[1] = test system: sAPPα release, NT2 cells stably expressing human APP751; experiment: sAPPα ELISA, NT2 cells expressing APP751; format: cell-based; conditions: 24 h
Protocol: (§1) (5). To confirm the effect of THPI-244 on sAPPα levels in a neuronal cell line and by a tertiary assay, we exposed human Neuron-committed Teratocarcinoma cell line (NT2) stably expressing human APP751 to different concentrations of THPI-244 for 24 h and compared with that of Bryostatin, a classical activator of PKC known to stimulate sAPPα release. […] Levels of sAPPα were measured by ELISA using commercially available kit (cat #27734, IBL-America, Minneapolis, Minn., USA). […] Similar biphasic effect of Bryostatin was confirmed for Aβ42 also, measured again in NT2 stable cells by ELISA (cat # KHB3441, Life Technologies, Grand Island, N.Y., USA). Consistent with sAPPα, THPI-244 decreased Aβ42 levels dose-dependently starting from 50 nM (28%, p<0.05) to 2000 nM (64%, p<0.001) (n=4 independent experiments) (FIG. 1.7). Thus THPI-244 increased non-amyloidogenic processing of APP in NT2 cells.

[2] = test system: Aβ42 levels, NT2 cells stably expressing APP751; experiment: Aβ42 ELISA, NT2 stable cells; format: cell-based, human; conditions: ELISA
Protocol: as §1

[3] = test system: sAPPα release, fibroblasts derived from AD patients; experiment: sAPPα ELISA, AD fibroblasts; format: cell-based, human; conditions: 24 h
Protocol: (1). […] Therefore, we first used fibroblasts derived from AD patients (AG06263C, Coriell Cell repository, supported by NINDS/NIH) and exposed to THPI-244 for 24 h and measured sAPPα release by ELISA as done above for NT2 cells. […] We also confirmed dose-dependent effect of THPI-244 on sAPPα levels in human primary neurons transiently transfected with APP751 with Swedish mutation which is trafficked differently from WT APP and releases more sAPPα. Human neurons were grown on specially coated glass coverslips (cat # GG-18-PDL, NeuVitro, Germany). We could reproducibly achieve nearly 30% transfection efficiency using a nanoparticle based transfection reagent called Neuromag (cat # NM150299, OZ Biosciences, France).

CCC/C=C/C=C/C(=O)O[C@H]1/C(=C/C(=O)OC)C[C@H]2C[C@H]([C@@H](C)O)OC(=O)C[C@H](O)C[C@@H]3C[C@H](OC(C)=O)C(C)(C)[C@](O)(C[C@@H]4C/C(=C/C(=O)OC)C[C@H](/C=C/C(C)(C)[C@]1(O)O2)O4)O3 [Bryostatin, reference compound]
concentration from which sAPPα increase is significant [1]: 10 nM | effect on sAPPα release [1]: increased sAPPα at low nM concentrations, but then decreased levels dose-dependently | concentration from which Aβ42 decrease is significant [2]: 10 nM | concentration from which sAPPα increase is significant [3]: 10 nM

Source: patent publication US20150315179A1, “COMPOUNDS AND METHODS OF TREATING NEUROLOGICAL DISORDERS” (Torrey Pines Institute For Molecular Studies, priority 2014, published 2015)
